Our source for the Wasserlöslichkeiten values is patent publication EP0047459A2, “Fluorescent reagent and immunofluorescent determination method” (INTERNATIONAL DIAGNOSTIC TECHNOLOGY, INC., priority 1980, dated 1982).

The nature of this data set: Comparison of water solubilities of haptens, modified haptens and gentamicin reaction products. The data set is classed as physicochemical. The source says: In der Tabelle III werden die Wasserlöslichkeiten der Haptene Phenobarbital und Diphenylhydantoin in unveränderter Form, in modifizierter Form (carboxyliert bzw. aminiert) und in der sogenannten konjugierten Form, nämlich als Umsetzungsprodukt mit Gentamicin gegenübergestellt. Hieraus ergibt sich, daß die Haptene in unveränderter und in modifizierter Form hydrophob sind (Die Unlöslichkeit in Wasser ist ein Maß für die Hydrophobie einer Verbindung). Mit steigender Unlöslichkeit der Verbindungen in Wasser steigt die Hydrophobie und die Wahrscheinlichkeit, daß sie an die Oberfläche gebunden werden, wobei durch die unspezifischen Bindungen große Ungenauigkeiten in der Immunofluoreszenz-Bestimmungsmethode verursacht werden. Wie aus der Tabelle III weiterhin ersichtlich, erhält man ein lösliches, d.h. hydrophiles Produkt, wenn man ein hydrophobes Hapten wie Phenobarbital oder Diphenylhydantoin mit einer hydrophilen Verbindung wie Gentamicin verbindet. Derartige Produkte werden nicht als solche an die feste Oberfläche gebunden.

Read-outs that look alike come from different tables or passages of the source.

For `O=C1NC(=O)C(c2ccccc2)(c2ccccc2)N1` [Diphenyl-hydantoin, Diphenylhydantoin], the Wasserlöslichkeiten result is reported as “unlöslich”. Take `CCC1(c2ccccc2)C(=O)NC(=O)NC1=O` [Phenobar-bital, Phenobarbital]: the Wasserlöslichkeiten entry (in water, insolubility is taken as a measure of hydrophobicity) was “unlöslich”.
